Source: PubChem BioAssay (NCI)
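Protocol summary: plate cells (96-well), add compound at 5 concentrations, incubate 48 h, interpolate endpoints linearly. Here, GI50 denotes the concentration required for 50% inhibition of growth. At the TGI there is no net growth.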

Experiments:
Assay in all cases: growth of human tumour cells (NCI), 48 h
[1] = tested on: MOLT-4 leukemia
[2] = tested on: MDA-MB-231 breast
[3] = tested on: MDA-MB-435
[4] = tested on: OVCAR-3 ovarian
[5] = tested on: TK-10 renal
[6] = tested on: DU-145 prostate
[7] = tested on: OVCAR-4 ovarian
[8] = tested on: CAKI-1 renal
[9] = tested on: HCT-116 colon
[10] = tested on: BT-549 breast

| Compound | TGI [1] | TGI [2] | TGI [3] | TGI [4] | TGI [5] | TGI [6] | TGI [7] | TGI [8] | TGI [9] | TGI [10] | GI50 [3] | GI50 [10] | GI50 [6] | GI50 [8] | GI50 [9] |
| --- | --- | --- | --- | --- | --- | --- | --- | --- | --- | --- | --- | --- | --- | --- | --- |
| O=C(CC(C(=O)c1ccco1)c1ccco1)c1ccco1 (stereo not given) | > 100 µM | > 100 µM | > 100 µM | > 100 µM | > 100 µM | > 100 µM | > 100 µM | > 100 µM | > 100 µM | – | – | – | – | – | – |
| O=S1(=O)c2cnccc2NC(=NCc2ccccc2)N1c1ccccc1 | > 100 µM | – | > 100 µM | > 100 µM | > 100 µM | > 100 µM | > 100 µM | > 100 µM | > 100 µM | > 100 µM | – | – | – | – | – |
| c1ccc2[nH]c(CNc3ccc(C4C[Se]N=N4)cc3)nc2c1 (stereo not given) | 40.5 µM | – | – | 96.9 µM | > 100 µM | – | > 100 µM | > 100 µM | > 100 µM | – | – | – | – | – | – |
| CC(=O)Oc1c(C)c(C)c2c(c1C)CCC(C)(CC(=O)OCCCCCCCCCCC[P+](c1ccccc1)(c1ccccc1)c1ccccc1)O2 (stereo not given) | – | – | 1.2 µM | – | – | 1.34 µM | – | 3.27 µM | – | 0.99 µM | 0.31 µM | 0.314 µM | 0.384 µM | 1.72 µM | – |
| Nc1ccc(-c2nn3c(COc4ccc(Cl)cc4)nnc3s2)cc1 | > 100 µM | > 100 µM | > 100 µM | > 100 µM | > 100 µM | > 100 µM | > 100 µM | > 100 µM | > 100 µM | – | – | – | – | – | 34.8 µM |
| CCOC(=O)c1c(SCCN2CCOCC2)n(-c2ccccc2)c(=S)n(-c2ccccc2)c1=O | 92.5 µM | > 100 µM | > 100 µM | > 100 µM | > 100 µM | – | > 100 µM | – | – | > 100 µM | – | – | – | – | – |
| CC1(C)CC(C#Cc2ccccc2)CC(C)(C)N1O | > 100 µM | 29.8 µM | 44.6 µM | 37.4 µM | 40.5 µM | 41.9 µM | > 100 µM | 61.3 µM | 43.5 µM | – | – | – | – | – | – |
| O=C1CS(=O)(=O)C(c2cccc(Oc3ccccc3)c2)N1c1cc(Cl)ccc1Cl (stereo not given) | > 100 µM | 38.4 µM | 25.9 µM | 35.1 µM | 90.6 µM | 43.3 µM | – | – | 41.9 µM | 41.3 µM | – | – | – | – | – |
| CSc1nc2c(ncn2C2OC(CO)C(O)C(O)C2O)c(=O)[nH]1 (stereo not given) | > 100 µM | – | – | > 100 µM | – | – | > 100 µM | – | > 100 µM | – | – | – | – | – | – |
| O=[N+]([O-])/C(Cl)=C(\NCCN/C(C(Cl)=C(Cl)Cl)=C(/Cl)[N+](=O)[O-])C(Cl)=C(Cl)Cl | 80.7 µM | > 100 µM | > 100 µM | > 100 µM | > 100 µM | > 100 µM | – | > 100 µM | > 100 µM | > 100 µM | – | – | – | – | – |
| c1ccc2c(c1)CCCC/C2=N/OCC1CO1 (stereo not given) | > 100 µM | – | – | – | > 100 µM | – | – | – | > 100 µM | – | – | – | – | – | – |
| CCN(CCCl)c1cc(CN(C)C)cc(NC(=O)c2ccc(C(=O)Nc3cccc(CN(C)C)c3)cc2)c1 | 0.904 µM | > 100 µM | 0.665 µM | – | 9.94 µM | 42.6 µM | 6.08 µM | > 100 µM | 14.4 µM | – | – | – | – | – | – |
| COc1ccc(C2c3cc4c(cc3OC(NCCO)C2C)OCO4)cc1 (stereo not given) | 50 µM | 63.3 µM | 59.7 µM | 36.4 µM | 66.1 µM | > 100 µM | – | 77.1 µM | 31 µM | 59 µM | – | – | – | – | – |
| Nc1ccccc1C(=O)C(Br)C(Br)c1ccc2c(c1)OCO2 (stereo not given) | > 100 µM | – | – | 36.1 µM | 72.7 µM | – | 59.8 µM | – | 31.1 µM | – | – | – | – | – | – |
| COc1cccc2c1OCC1Cc3ccccc3OC21 (stereo not given) | > 100 µM | > 100 µM | 75.3 µM | 88.8 µM | 72.8 µM | > 100 µM | – | > 100 µM | > 100 µM | 52.2 µM | – | – | – | – | – |
| CN1N=C(c2ccncc2)OC1c1ccccc1F (stereo not given) | > 100 µM | > 100 µM | > 100 µM | > 100 µM | > 100 µM | > 100 µM | > 100 µM | – | > 100 µM | – | – | – | – | – | – |
| O=C1C2=C(CCC2)Nc2cccc3ncn1c23 | > 100 µM | – | – | – | 75.7 µM | – | – | – | > 100 µM | – | – | – | – | – | – |
| O=C(NN1C(=O)CSC1c1cccc(F)c1)c1ccncc1 (stereo not given) | > 100 µM | – | – | – | > 100 µM | – | > 100 µM | > 100 µM | – | – | – | – | – | – | – |
| CN(C)c1cccc2c1C(=O)C=CC21c2ccc(N(C)C)c3c(N(C)C)ccc(c23)C(c2ccccc2)C1c1ccccc1 (stereo not given) | 6.82 µM | 28.9 µM | 30.2 µM | 31.2 µM | 25.5 µM | > 100 µM | 27.2 µM | 17.2 µM | 52.6 µM | – | – | – | – | – | – |

| Compound | TGI [1] | TGI [2] | TGI [3] | TGI [4] | TGI [5] | TGI [6] | TGI [7] | TGI [8] | TGI [9] | TGI [10] | GI50 [3] | GI50 [10] | GI50 [6] | GI50 [8] | GI50 [9] |
| --- | --- | --- | --- | --- | --- | --- | --- | --- | --- | --- | --- | --- | --- | --- | --- |
| CON(C)C(=O)C1CCCO1 (stereo not given) | > 100 µM | > 100 µM | > 100 µM | > 100 µM | > 100 µM | > 100 µM | > 100 µM | > 100 µM | > 100 µM | – | – | – | – | – | – |
| Cc1ccc2oc(=O)c(-c3ccccc3)nc2c1 | > 100 µM | – | – | > 100 µM | > 100 µM | – | 75.2 µM | > 100 µM | > 100 µM | – | – | – | – | – | – |
| O=[N+]([O-])c1cccc2c(N=Nc3ccc4ccccc4c3O)c(O)cc(S(=O)(=O)O)c12 | > 100 µM | – | > 100 µM | > 100 µM | > 100 µM | – | > 100 µM | > 100 µM | > 100 µM | > 100 µM | – | – | – | – | – |
| O=C(/C=C/c1ccc2c(c1)OCO2)Cc1nc2ccccc2[nH]c1=O | > 100 µM | 41.7 µM | 46.1 µM | 81.5 µM | 34.2 µM | 71.6 µM | – | 48.1 µM | > 100 µM | > 100 µM | – | – | – | – | – |
| COc1cc([N+](=O)[O-])c(OC)c2c(Nc3ccc(S(=O)(=O)O)c4cc(S(=O)(=O)O)cc(S(=O)(=O)O)c34)cc(C)nc12 | > 100 µM | > 100 µM | > 100 µM | > 100 µM | > 100 µM | > 100 µM | – | > 100 µM | > 100 µM | > 100 µM | – | – | – | – | – |
| O=[N+]([O-])c1ccc2c(c1)c(N=NC(=S)Nc1ccc(Cl)cc1)c(O)n2CN1CCOCC1 | 2.97 µM | 30.6 µM | 19.2 µM | 17.6 µM | 24.5 µM | 22.2 µM | 21.6 µM | 12.4 µM | 15.7 µM | – | – | – | – | – | – |
| N#C/C(=C1\SC(N=Nc2ccc(Cl)cc2)C(=O)N1c1ccccc1)c1nc2ccccc2[nH]1 (stereo not given) | – | – | – | 69 µM | 61.6 µM | – | 55.8 µM | > 100 µM | > 100 µM | – | – | – | – | – | – |
| Cc1cccc(/C(Br)=C2/OC(=O)c3ccccc32)c1 | > 100 µM | – | > 100 µM | > 100 µM | > 100 µM | > 100 µM | > 100 µM | > 100 µM | > 100 µM | > 100 µM | – | – | – | – | – |
| O=C1C(C(O)(C(F)(F)F)C(F)(F)F)CCC1C(O)(C(F)(F)F)C(F)(F)F (stereo not given) | > 100 µM | 17.9 µM | > 67.6 µM | > 100 µM | > 100 µM | > 100 µM | > 100 µM | 19.8 µM | 13.1 µM | – | – | – | – | – | – |
| COc1ccc([C@H]2C=[N+]([O-])O[C@H](OC3CCCC3)[C@@H]2OC(C)=O)cc1OC | > 100 µM | 78.2 µM | 67.5 µM | 72.4 µM | 68.2 µM | 89.6 µM | > 100 µM | 29.3 µM | – | – | – | – | – | – | – |
| CC1=NNC(=O)C1C1CC(c2c[nH]c3ccccc23)=NN=C1Cl (stereo not given) | 75.8 µM | > 100 µM | > 100 µM | > 100 µM | > 100 µM | > 100 µM | – | > 100 µM | > 100 µM | > 100 µM | – | – | – | – | – |
| CN1CCN(C2=C(Cl)C3(OCCS3)C(F)(F)C2(F)F)CC1 (stereo not given) | > 100 µM | > 100 µM | > 100 µM | > 100 µM | > 100 µM | > 100 µM | > 100 µM | > 100 µM | > 100 µM | – | – | – | – | – | – |
| CC(C)N1CN(c2ccccc2)C2(CCN(CCCC(=O)c3ccc(F)cc3)CC2)C1=O | 47.3 µM | 26.6 µM | 27.6 µM | 65.6 µM | > 49.5 µM | 24.2 µM | > 76 µM | 34.7 µM | 5.52 µM | – | – | – | – | – | – |
| COc1ccc(N2C(=O)C3c4[nH]c5ccccc5c4C4CCCCCCCCCC4C3C2=O)cc1 (stereo not given) | > 10 µM | > 10 µM | > 10 µM | > 10 µM | > 10 µM | > 10 µM | > 10 µM | > 10 µM | > 10 µM | – | – | – | – | – | – |
| CCOC(=O)C1CCC(=O)N1C(=O)c1ccccc1Cl (stereo not given) | > 100 µM | > 100 µM | > 100 µM | > 100 µM | > 100 µM | > 100 µM | – | > 100 µM | > 100 µM | > 100 µM | – | – | – | – | – |
| CCOP(=O)(OCC)OC1CC(n2cc(C)c(=O)n(C)c2=O)OC1CO[Si](C)(C)C(C)(C)C (stereo not given) | > 100 µM | – | > 100 µM | > 100 µM | > 100 µM | > 100 µM | > 100 µM | > 100 µM | > 100 µM | > 100 µM | – | – | – | – | – |
| O=C1OC(c2ccccc2)N(C(=O)c2ccccc2)C1Cc1ccc(OCc2ccccc2)cc1 (stereo not given) | – | 23.9 µM | > 100 µM | – | > 100 µM | > 100 µM | – | – | > 100 µM | – | – | – | – | – | – |
| O=C1C2=Nc3ccccc3C(O)(C(=O)O)N2c2ccccc21 (stereo not given) | > 100 µM | 35.4 µM | 5.5 µM | 58.5 µM | > 100 µM | 29.8 µM | 32.4 µM | > 100 µM | 59.7 µM | – | – | – | – | – | – |
| COc1ccc(/C=N/n2c(C)nc3c(sc(=S)n3-c3ccccc3)c2=O)cc1 | > 100 µM | – | – | > 100 µM | > 100 µM | – | – | – | > 100 µM | – | – | – | – | – | – |
